Experiment [1] addresses T1, bovine α3β4 nicotinic acetylcholine receptors (Bos taurus, UniProt Q07263+Q8SPU6).
T1 construct: host or cells: Xenopus laevis oocytes injected with in vitro transcribed mRNA
As to the kind of experiment: Two-electrode voltage clamp of ACh-induced inward current (IACh), wild-type α3β4 nAChRs expressed in Xenopus oocytes. As to conditions: for IC50: read-out: IC50 (half-maximal inhibitory response concentration). It counts as cell-based. The protocol: (§1) Bovine cholinergic receptor nicotinic α3 subunit (gene accession number: 282702) and β4 subunit (gene accession number: 282181) were obtained from OriGene (Rockville, State Abbr. USA). All reagents, including ACh, MEC, and BA, were purchased from Sigma-Aldrich (St. Louis, MO, USA). All reagent stocks used in electrophysiological experiments were dissolved in dimethyl sulfoxide (DMSO) with the final concentration of DMSO not exceeding 0.01%. Frogs (Xenopus laevis) used in these experiments were obtained from the Korean Xenopus Resource Center for Research (KXRCR000001) and used according to appropriate standards.
(§2) All experiments were performed according to appropriate standards. After anesthetizing frogs on ice preoperatively, oocytes were extracted. Outer layers of oocytes were removed with OR-2 (Oocyte Ringer 2 solution) (82.5 mM NaCl, 2 mM KCl, 1 mM MgCl2, 5 mM HEPES, pH 7.4) containing collagenase II (2 mg/mL) in a room temperature shaker. Only stage V–VI oocytes were selected and used in this study. These oocytes were incubated in ND96 incubation buffer ([…] NaCl, 2 mM KCl, 1 mM MgCl2, 1.8 mM CaCl2, 5 mM HEPES, 2.5 mM sodium pyruvate, and […] gentamycin, pH 7.4) at 18 °C prior to mRNA injection.
(§3) Bovine α3β4 nAChRs cDNAs were restricted using appropriate restriction sites. Bovine α3β4 nAChRs mRNA was then subjected to in vitro transcription using a T7 polymerase kit (mMESSAGE mMACHINE T7 Transcription Kit; Thermo Fisher Scientific, Waltham, MA, USA) followed by injection into oocytes. A glass needle filled with mineral oil was used to install onto a nanoinjector (Drummond Scientific, Broomall, PA, USA). After incubating for 1–3 days, mRNA-injected oocytes were used for electrophysiology experiments.
Two-electrode voltage clamp (TEVC) experiments were performed using oocytes infused with α3β4 nAChR mRNA and cultured according to appropriate criteria. Each oocyte was penetrated with a microelectrode filled with 3M KCl at a resistance of 0.2 MΩ. All experiments were performed at room temperature using a two-electrode voltage clamp (OC-725C; Warner Instruments, Hamden, CT, USA) with a Digidata 1322A. The holding potential of the oocyte membrane potential was −80 mV. ACh and BA used in the experiment were diluted with ND96 buffer to appropriate concentrations. The perfusion rate was about 2 mL per minute. The induced-inward current was converted to digital data with the pClamp 10 software (Axon Instruments, Union City, CA, USA) for further analysis.
The current-voltage relationship was measured by changing the holding potential using a ramp protocol. Voltages ranging from −100 mV to +60 mV were applied to injected oocytes to measure the voltage ramp trace. The values were converted using Clampfit 9.0 (Molecular Devices, San Jose, CA, USA).
Concentration-response curve data were analyzed using SigmaPlot 10.0 software. Equation data were obtained using OriginPro 9.0 software (Origin, MA, USA) and fitted using the Hill equation y = Vmin + (Vmax − Vmin)*[x]^n/([IC50]^n + [x]^n), where Vmax and Vmin were the maximum and minimum current, respectively, x was the concentration of ACh or BA, n was the coefficient of interaction, and IC50 was the concentration of BA that produced half the maximum inhibitory effect. p-values < 0.05 were considered statistically significant.

In experiment [2] the target is T2, Wild α3 + β4 (I263A) nicotinic acetylcholine receptor (Bos taurus, UniProt Q07263+Q8SPU6, I284A).
T2 construct: host or cells: Xenopus laevis oocytes injected with mRNA; mutant made by site-directed mutagenesis
The experiment can be described thus: Two-electrode voltage clamp, single-mutant wild α3 + β4 (I263A) nAChR in Xenopus oocytes. In kind it is cell-based, bovine. As to conditions: 100 μM ACh, holding potential −80 mV. On the procedure: as §1, §2, §3
(§4) Using α3 and β4 subunit cDNAs, point mutation was performed by PCR with Pfu DNA polymerase (Quikchange II Site-Directed Mutagenesis Kit). After designing a chimeric primer for mutation, optimal PCR conditions were determined. DpnI was added to remove methylated cDNA. […]
(§5) Concentration-response curve data were analyzed using SigmaPlot 10.0 software. […]
For orientation: Two-electrode voltage clamp holds a large cell at a set potential and records current.

Experiment [3] concerns the target T3, α3 (L257A) + β4 (I263A) nicotinic acetylcholine receptor (Bos taurus, UniProt Q07263+Q8SPU6, I284A/L278A).
T3 construct: host or cells: Xenopus laevis oocytes injected with mRNA; mutants made by site-directed mutagenesis
As to the kind of experiment: Two-electrode voltage clamp, double-mutant α3 (L257A) + β4 (I263A) nAChR in Xenopus oocytes. It counts as cell-based, bovine. Particulars: 100 μM ACh, holding potential −80 mV. On the procedure: as §1, §2, §3, §4, §5

Experiment [4] has as its target T4, α3 (L257A) + Wild β4 nicotinic acetylcholine receptor (Bos taurus, UniProt Q07263+Q8SPU6, L278A).
T4 construct: host or cells: Xenopus laevis oocytes injected with mRNA; mutant made by site-directed mutagenesis
As to the kind of experiment: Two-electrode voltage clamp, single-mutant α3 (L257A) + wild β4 nAChR in Xenopus oocytes. It counts as cell-based, bovine. Particulars: 100 μM ACh, holding potential −80 mV. The protocol: as §1, §2, §3, §4, §5

[5] abbreviates: wild-type, co-applied with 100 μM ACh, holding potential −80 mV.

“And” between values parts separate entries of the source, which are not always exact repeats. Equal values may be shown once.

From publication PMC8125762, “Molecular Regulation of Betulinic Acid on α3β4 Nicotinic Acetylcholine Receptors” (Molecules, 2021) come the findings set out here.

One may read the EC50 as the concentration at which the effect is half-maximal. What is called Emax is the size of the effect at its maximum, as opposed to the concentration needed. As a reminder, the inhibition is the relative decrease from the control value, in per cent.

T4 sequence (Q07263 22-495 L278A): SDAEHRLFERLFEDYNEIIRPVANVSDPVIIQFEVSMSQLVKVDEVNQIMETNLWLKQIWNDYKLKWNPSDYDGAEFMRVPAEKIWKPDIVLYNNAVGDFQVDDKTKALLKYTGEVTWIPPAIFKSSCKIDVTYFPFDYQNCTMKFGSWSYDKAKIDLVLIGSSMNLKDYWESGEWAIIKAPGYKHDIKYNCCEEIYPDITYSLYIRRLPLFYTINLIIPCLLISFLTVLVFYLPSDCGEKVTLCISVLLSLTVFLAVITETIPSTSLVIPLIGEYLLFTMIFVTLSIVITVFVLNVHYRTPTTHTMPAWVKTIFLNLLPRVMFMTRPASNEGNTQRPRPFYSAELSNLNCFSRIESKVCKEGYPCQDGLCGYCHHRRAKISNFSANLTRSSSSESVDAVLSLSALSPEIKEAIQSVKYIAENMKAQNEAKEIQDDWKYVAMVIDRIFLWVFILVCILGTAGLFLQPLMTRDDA
T4 sequence (Q8SPU6 20-496, stated change not applied): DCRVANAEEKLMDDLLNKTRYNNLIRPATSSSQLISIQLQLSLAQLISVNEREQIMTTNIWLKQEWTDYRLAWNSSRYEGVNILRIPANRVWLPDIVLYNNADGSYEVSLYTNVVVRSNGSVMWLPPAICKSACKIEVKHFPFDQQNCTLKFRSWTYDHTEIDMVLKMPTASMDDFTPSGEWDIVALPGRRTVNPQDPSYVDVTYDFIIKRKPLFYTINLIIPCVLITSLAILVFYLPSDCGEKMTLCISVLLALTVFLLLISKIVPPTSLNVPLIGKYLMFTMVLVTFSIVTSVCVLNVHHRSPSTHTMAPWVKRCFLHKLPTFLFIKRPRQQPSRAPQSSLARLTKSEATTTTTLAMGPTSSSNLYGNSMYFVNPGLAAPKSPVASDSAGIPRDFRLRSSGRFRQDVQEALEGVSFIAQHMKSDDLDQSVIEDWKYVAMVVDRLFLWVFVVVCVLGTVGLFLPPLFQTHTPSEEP
T3 sequence (Q07263 22-495 L278A): as the sequence (Q07263 22-495 L278A) above
T3 sequence (Q8SPU6 20-496 I284A): as the sequence (Q8SPU6 20-496, stated change not applied) above, with I265A counted along it
T1 sequence (Q07263 22-495): as the sequence (Q07263 22-495 L278A) above, with A257L counted along it
T1 sequence (Q8SPU6 20-496): as the sequence (Q8SPU6 20-496, stated change not applied) above
T2 sequence (Q07263 22-495, stated change not applied): as the sequence (Q07263 22-495 L278A) above, with A257L counted along it
T2 sequence (Q8SPU6 20-496 I284A): as the sequence (Q8SPU6 20-496, stated change not applied) above, with I265A counted along it

The compound `CC(=O)OCC[N+](C)(C)C` [ACh, acetylcholine] displayed an EC50 in experiment [1] (in the absence of BA, holding potential −80 mV) of 9.4 ± 1.25 µM. The Emax in experiment [1] (read-out: maximum efficacy of ACh-induced inward current (Emax)) was 101 ± 1.47%.
`C=C(C)[C@@H]1CC[C@]2(C(=O)O)CC[C@]3(C)[C@H](CC[C@@H]4[C@@]5(C)CC[C@H](O)C(C)(C)[C@@H]5CC[C@]43C)[C@@H]12` [BA, 3β, hydroxy-lup-20 (29) -en-28-oic acid]: in experiment [2], the IC50 was ~13.4 µM and 13.4 µM; the Imax turned out to be 33.1 ± 3.3%; the “nH (Hill coefficient)” value amounted to 2.7 ± 1.0. For the same compound, in experiment [3], the IC50 is roughly 26.2 µM, the Imax turned out to be 7.4% and the “nH (Hill coefficient)” value amounted to 2. Further, in experiment [1] (10 μM BA compared to 0 μM BA), the “decrease of efficacy of acetylcholine-induced inward current” value is “about 60%”. Also, the “reversible potential (current-voltage relationship)” value in experiment [1] (ACh 100 μM and BA co-administered, voltage ramp −100 to +60 mV) is “about −10 mV”. Further, the reversibility of inhibition entry in experiment [1] (ACh added again after BA co-administration) is reported as “reversible”. For the same compound, the “inhibition percentage of nAChRs” value in experiment [1] (BA 100 μM co-applied with 100 μM ACh, holding potential −80 mV) was found to be 89.2 ± 8.2%. The “manner of inhibition versus ACh” value in experiment [1] (different ACh concentrations with fixed BA 3 μM or 10 μM) is recorded as “non-competitive”. For the same compound, in experiment [1] (setting [5]), the “Hill coefficient (nH)” value was 0.9 ± 0.1; the Imax was 101.59 ± 5.98% and 101.5 ± 5.9%; the IC50 was 12.9 µM and 12.8 µM. For the same compound, in experiment [4], the IC50 is 18.6 µM, the Imax stood at 48.9 ± 2.7% and the “nH (Hill coefficient)” value came to 1.6 ± 0.1.
On to `CNC1(C)C2CCC(C2)C1(C)C` (stereo not shown) [MEC, mecamylamine, reference compound], for which the inhibition at 10 µM in experiment [1] (MEC 10 μM added at the same time as 100 μM ACh, holding potential −80 mV, read-out: inhibition of IACh (acetylcholine-induced inward peak current)) was roughly 100%. In addition, in experiment [1] (setting [5]), the “Hill coefficient (nH)” value is listed as 1.5 ± 0.1 and the IC50 came to 1.5 µM.
